In patent US9540649B2, “Method for opening tight junctions” (The Provost, Fellows and Scholars of the College of the …, priority 2007, dated 2017):
Entries after “also recorded” stand apart in the source; their conditions may differ.

Experiments:
claudin-1 = test: Claudin-1 expression following suppression of claudin-5 (Western blot, double immunostaining); format: in vivo, C57/Bl6 mice
iBRB = test: MRI analysis of Gd-DTPA diffusion across the iBRB (eye); format: in vivo, mice; settings: 48 hours post-injection
claudin-5 = test: Western blot analysis of claudin-5 expression in brain after hydrodynamic tail vein delivery of siRNA; format: in vivo, C57/Bl6 mice
Method: Rapid high pressure, high volume tail vein injections were carried out (Kiang et al., 2005). Wild type C57/Bl6 mice of weight 20-30 g were individually restrained inside a 60-ml volume plastic tube. The protruding tail was warmed for 5 minutes prior to injection under a 60-W lamp and the tail vein clearly visualized by illumination from below. 20 micrograms of targeting siRNA, or non-targeting siRNA made up with PBS to a volume in mls of 10% of the body weight in grams or PBS alone, was injected into the tail vein at a rate of 1 ml/sec using a 26-gauge (26 G 3/8) needle. After 24, 48, 72 hours and 1 week, protein was isolated from total brain tissue by crushing brains to a fine powder in liquid N2 and subsequently using lysis buffer containing 62.5 mM Tris, 2% SDS, 10 mM Dithiothreitol, 10 μl protease inhibitor cocktail/100 ml (Sigma Aldrich, Ireland). The homogenate was centrifuged at 10,000 g for 20 mins @4° C., and the supernatant was removed for claudin-5 analysis.
Briefly, protein samples were separated on 12% SDS-PAGE gels and transferred to nitrocellulose membrane overnight using a wet electroblot apparatus. Efficiency of protein transfer was determined using Ponceau-S solution (Sigma Aldrich, Ireland). Non-specific binding sites were blocked by incubating the membrane at room temperature with 5% non-fat dry skimmed milk in Tris-buffered saline (TBS) (0.05 M Tris, 150 mM NaCl, pH 7.5) for 2 hours. Membranes were briefly washed with TBS, and incubated with polyclonal rabbit anti-claudin-5 (Zymed Laboratories, San Francisco, Calif.) (1:500) or polyclonal rabbit anti-β-actin (Abcam, Cambridge, UK) (1:1000). Antibodies were incubated with membranes overnight at 4° C. Membranes were washed with TBS, and incubated with a secondary anti-rabbit (IgG) antibody with Horse-Radish-Peroxidase (HRP) conjugates (1:2500), for 3 hours at room temperature. Immune complexes were detected using enhanced chemiluminescence (ECL).

[1] = tested on: endothelial cells of heart, liver, lung and kidney; test: Endothelial cell morphology of major organs (Griffonia simplicifolia-isolectin B4 staining); format: in vivo, mouse; settings: all time points; vs control groups
Method: Following hydrodynamic injection of siRNA targeting claudin-5, cryosections were prepared of all the major organs, the heart, liver, lung and kidney. Sections were incubated overnight at 4° C. with HRP-conjugated Griffonia simplicifolia-isolectin B4 in order to stain the endothelial cells of organs.

Substance: claudin-5 siRNA: siRNA, sense CGUUGGAAAUUCUGGGUCUUU (SEQ ID NO: 1), antisense AGACCCAGAAUUUCCAACGUU (SEQ ID NO: 2) (listed as RNA, chemistry not given here)
- claudin-1 (23 kDa) expression, Western blot (claudin-1; 24, 48, 72 hours and 1 week post delivery of claudin-5 siRNA): no changes at any time points
- claudin-1 expression, double immunostaining in brain cryosections (claudin-1; each time point post-injection of claudin-5 siRNA): remain similar to those observed in the control groups
- Gd-DTPA contrasting in the eye / iBRB integrity, MRI (iBRB): Strong contrasting
- Gd-DTPA contrasting in the eye / iBRB integrity, MRI (iBRB; listed as siRNA targeting claudin-5): iBRB was compromised
- claudin-5 expression, Western blot, brain (claudin-5; 24 hours post delivery of 20 μg siRNA, vs un-injected, PBS and non-targeting siRNA controls): decrease in expression; also recorded: markedly decreased
- claudin-5 expression, Western blot, brain (claudin-5; 48 hours post delivery of 20 μg siRNA, vs controls): suppression was also evident
- claudin-5 expression, Western blot, brain (claudin-5; 48 hours post delivery of 20 μg siRNA, vs controls, listed as CLDN5 siRNA): significant decreases in Claudin-5 expression
- claudin-5 expression, Western blot, brain (claudin-5; 48 hours post delivery of 20 μg siRNA, vs controls, listed as siRNA targeting claudin-5): maximum suppression
- claudin-5 expression, Western blot, brain (claudin-5; 72 hours post delivery of 20 μg siRNA, vs controls, listed as CLDN5 siRNA): levels of expression appeared similar to those observed in the control groups
- time at which claudin-5 expression returns to normal, Western data (claudin-5; after injection): returning to normal between 72 hours and 1 week
- endothelial cell morphology in liver, lung, kidney and heart [1]: appeared similar at all time points and in all major organs
